{"source": "patent US10070889B2", "about": "“Inorganic pyrophosphate and uses thereof” (The Curators of the University of Missouri, priority 2011, dated 2018)", "key": {"[1]": {"system": "20S chymotrypsin-like activity sensitive to proteasomal inhibitor MG132", "assay": "Proteasomal activity of stored spermatozoa, fluorometric substrate Z-LLL-AMC", "assay_type": "cell-based, boar", "method": "Spermatozoa preserved in BTS with and without 10 μM PPi were loaded into a 96-well black plate (final sperm conc. 1×10^6 spermatozoa/ml), and incubated at 37.5° C. with Z-LLE-AMC (a specific substrate for 20S chymotrypsin-like peptidyl-glutamylpeptide hydrolyzing [PGPH] activity not sensitive to MG132; final conc. 100 μM; Enzo Life Sciences, Plymouth, Pa.), Z-LLVY-AMC (a specific substrate for 20S proteasome and other chymotrypsin-like proteases, as well as calpains; final conc. 100 μM; Enzo), Z-LLL-AMC (a specific substrate for 20S chymotrypsin-like activity sensitive to proteasomal inhibitor MG132; final conc. 100 μM; BostonBiochem, Cambridge, Mass.) or ubiquitin-AMC (specific substrate for ubiquitin-C-terminal hydrolase activity; final conc. 1 μM; Enzo) for 1 h. […] In the presence of appropriate 20S core activity, the AMC molecule is cleaved off and becomes fluorescent. This emitted fluorescence was measured every 10 min for a period of 1 h, yielding a curve of relative fluorescence (no units). Fluorescence intensity was measured by Thermo Fluoroskan Ascent (Thermo Scientific), using a 380 nm excitation and 460 nm emission."}, "[2]": {"system": "20S chymotrypsin-like peptidyl-glutamylpeptide hydrolyzing [PGPH] activity", "details": "other treatments 363.1-386.1", "protocol": "(§1) The proteasomal-proteolytic and deubiquitinating activities, which are essential for fertilization, were assayed using specific fluorometric substrates Z-LLL-AMC, Z-LLVY-AMC, Z-LLE-AMC and ubiquitin-AMCs in spermatozoa stored for 3 and 10 days, with or without PPi. Alternatively, 10 μM PPi+BTS was added to semen preserved without PPi at the time of assay (“Add PPi” treatment). As a negative control, 10 μM MG132 (a proteasomal inhibitor) was added to sperm samples before assay.\n(§2) Spermatozoa preserved in BTS with and without 10 μM PPi were loaded into a 96-well black plate (final sperm conc. 1×10^6 spermatozoa/ml), and incubated at 37.5° C. with Z-LLE-AMC (a specific substrate for 20S chymotrypsin-like peptidyl-glutamylpeptide hydrolyzing [PGPH] activity not sensitive to MG132; final conc. 100 μM; Enzo Life Sciences, Plymouth, Pa.), Z-LLVY-AMC (a specific substrate for 20S proteasome and other chymotrypsin-like proteases, as well as calpains; final conc. 100 μM; Enzo), Z-LLL-AMC (a specific substrate for 20S chymotrypsin-like activity sensitive to proteasomal inhibitor MG132; final conc. 100 μM; BostonBiochem, Cambridge, Mass.) or ubiquitin-AMC (specific substrate for ubiquitin-C-terminal hydrolase activity; final conc. 1 μM; Enzo) for 1 h. Fluorogenic proteasomal core substrates are composed of a small peptide (LLL/LLE/LLVY) coupled to a fluorescent probe, aminomethylcoumarin (AMC). […] In the presence of appropriate 20S core activity, the AMC molecule is cleaved off and becomes fluorescent. This emitted fluorescence was measured every 10 min for a period of 1 h, yielding a curve of relative fluorescence (no units). Fluorescence intensity was measured by Thermo Fluoroskan Ascent (Thermo Scientific), using a 380 nm excitation and 460 nm emission."}, "[3]": {"system": "20S proteasome and other chymotrypsin-like proteases, as well as calpains", "details": "PPi+BTS and Add PPi treatments, 10 μM PPi; controls 85.7", "protocol": "as §1, §2"}, "[4]": {"system": "ubiquitin-C-terminal hydrolase activity", "details": "PPi+BTS (stored with 10 μM PPi), day 10; other treatments 98.4-122.7", "protocol": "as §1, §2"}, "[5]": {"system": "boar spermatozoa bound to porcine oocyte zona pellucida", "method": "Spermatozoa/oocytes were fixed in 2% formaldehyde for 40 min at room temperature, washed, permeabilized in PBS with 0.1% Triton-X-100 (PBS-TX), and blocked for 25 min in PBS-TX containing 5% normal goat serum. […] In order to count the number of spermatozoa bound to zona pellucida or acrosome reacted spermatozoa, oocyte were fixed and stained with DAPI and acrosome-binding lectin PNA-FITC (Molecular Probes) after IVF 30 min (5×10^5 spermatozoa/ml). Image acquisition was performed on a Nikon Eclipse 800 microscope (Nikon Instruments Inc., Melville, N.Y.) with Cool Snap camera (Roper Scientific, Tucson, Ariz.) and MetaMorph software (Universal Imaging Corp., Downington, Pa.)."}, "[6]": {"system": "porcine oocytes inseminated with boar spermatozoa", "assay": "Porcine in vitro fertilization (IVF), total and polyspermic fertilization rates", "assay_type": "cell-based", "protocol": "Thereafter, 25-30 oocytes were placed into each of four 50 μl drops of the mTBM medium, which had been covered with mineral oil in a 35 mm polystyrene culture dish. The dishes were allowed to equilibrate in the incubator for 30 min until spermatozoa were added for fertilization. […] At the end of the washing procedure, the spermatozoa were resuspended in mTBM medium. After appropriate dilution, 50 μl of this sperm suspension was added to 50 μl of the medium that contained oocytes to give a final sperm concentrations of 1-10×10^5 spermatozoa/ml. Different concentrations of inorganic pyrophosphate (PPi; […], Sigma) were added to fertilization drops (final concentrations; 0-20 μM) at the time of sperm addition. Oocytes were co-incubated with spermatozoa for 6 h at 38.5° C., 5% CO2. At 6 h after IVF, oocytes were transferred into 100 μl NCSU23 containing 0.4% BSA ([…], Sigma) for further culture during 16-20 h."}, "boar spermatozoa [7]": {"system": "boar spermatozoa", "details": "stored in BTS with 10 μM PPi", "protocol": "Boar spermatozoa were washed twice with PBS-PVA, and sperm concentration was adjusted to 1×10^6 spermatozoa/ml in PBS-PVA. The sperm viability was assessed by LIVE/DEAD® Sperm Viability Kit (L-7011, Molecular Probes) which contains DNA dyes SYBR14 and propidium iodide (PI), following a manufacturer's protocol. Sperm samples (198 μl) were loaded onto a 96-well plate. SYBR14 (1 μl; final conc. 100 nM) and PI (1 μl; final conc. 12 μM) were added to sperm samples and incubated for 10 min at 37.5° C. in darkness. Flow cytometric analysis was performed using a Guava EasyCyte™ Plus flow cytometer (Guava Technologies, IMV Technologies, L'Aigle, France). For each sample, 5,000 events were analyzed by the Guava ExpressPro Assay program, using standard manufacturer settings. For assessment of sperm mitopotential, boar spermatozoa were stained with JC-1 (Cat. No. 4500-0250, MitoPotential Kit, IMV), and measured using manufacturer settings. For negative controls, DMSO or no staining solution was added to sperm samples.\nFollowing an industry practice for boar semen storage, fresh boar semen was diluted in BTS extender and stored at room temperature (15-17° C.) for 10 days. […] As described above, sperm viability was assessed by flow cytometry using a SYBR14/PI viability kit and mitopotential was measured with JC-1 dye."}, "boar spermatozoa [8]": {"system": "boar spermatozoa", "details": "BTS-IMV+10 μM PPi, day 6, vs all other groups", "method": "Values are expressed as the mean±SEM. […] Values are expressed as the mean percentages ±SEM. […] (C) Effect of PPi supplementation on the viability of spermatozoa stored in commercial and custom made BTS extenders. Boar spermatozoa were preserved in BTS-IMV (IMV technologies, France) or BTS-HM (homemade) with and without 10 μM PPi for 7 days at room temperature. Sperm motilities were evaluated by observation under light microscopy at 37.5° C. […] Experiments were repeated twice.\nSemen was collected from proven fertile adult Duroc boars 15-22 months of age under the guidance of approved Animal Care and Use Committee (ACUC) protocols of the University of Missouri-Columbia (UM-C). The boars were placed on a routine collection schedule of one collection per week. The sperm-rich fraction of ejaculate was collected into an insulated vacuum bottle. Sperm-rich fractions of ejaculates with greater than 85% motile spermatozoa were used. Semen volumes were determined with a graduated cylinder. Sperm concentrations were estimated by a hemocytometer (Fisher Scientific, Houston, Tex.). The percentage of motile spermatozoa was estimated at 38.5° C. by light microscopy at 250× magnification. […]"}, "sperm diluted in BTS": {"system": "sperm diluted in BTS", "details": "added to sperm diluted in BTS, after 6 days of cooling; cited from earlier work"}}, "note": "Where two headings read alike, the source gives them in different places. Where a SMILES comes first, the peptide text is derived from it. The star is where a group is joined. Cbz = O=C(OCc1ccccc1)*"}
{"molecule": "CC(C)C[C@@H](C=O)NC(=O)[C@H](CC(C)C)NC(=O)[C@H](CC(C)C)NC(=O)OCc1ccccc1", "note": "[MG132, reference compound] (Cbz-Leu-Leu-Leu-aldehyde)", "values": [{"measurement": "chymotrypsin-like activity in spermatozoa", "setting": "[1]; 10 μM MG132 added before assay, day 3", "result": "low"}]}
{"molecule": "O=P(O)(O)OP(=O)(O)O", "note": "[PPi, inorganic pyrophosphate]", "values": [{"measurement": "chymotrypsin-like PGPH activity (Z-LLE-AMC), relative fluorescence", "setting": "[2]; Add PPi treatment (10 μM PPi added at time of assay), day 3", "result": 392.1}, {"measurement": "chymotrypsin-like PGPH activity (Z-LLE-AMC), relative fluorescence", "setting": "[2]; PPi+BTS (stored with 10 μM PPi), day 10", "result": 388}, {"measurement": "chymotrypsin-like proteasomal core activity (Z-LLVY-AMC), fluorescence intensity", "setting": "[3]", "result": "110.8-121.5"}, {"measurement": "deubiquitinating activity (ubiquitin-AMC), relative fluorescence", "setting": "[4]", "result": 138.9}, {"measurement": "percentage of acrosome-reacted spermatozoa", "setting": "[5]; 20 μM PPi vs 0-15 μM PPi", "result": "significantly higher"}, {"measurement": "mean number of spermatozoa bound to ZP", "setting": "[5]; increasing concentrations of PPi, 30 min, 5×10^5 spermatozoa/ml", "result": "decreased slightly, but not significantly"}, {"measurement": "chymotrypsin-like activity (Z-LLL-AMC)", "setting": "[1]; 10 μM PPi treatments vs no PPi, 1 h measurement", "result": "no differences between treatments"}, {"measurement": "polyspermy", "setting": "[6]; 10 μM PPi in IVF medium, 1×10^6 spermatozoa/ml", "result": 84.9, "unit": "%"}, {"measurement": "percentage of total and polyspermic fertilization at reduced sperm concentrations", "setting": "[6]; 10 μM PPi, 1, 2 and 5×10^5 spermatozoa/ml, significant at 5×10^5", "result": "augmented"}, {"measurement": "fertilization rates with excess PPi", "setting": "[6]; 100-500 μM PPi added into IVF medium", "result": "decreased fertilization rates in a dose-dependent manner"}, {"measurement": "rates of total and polyspermic fertilization", "setting": "[6]; increasing concentrations of PPi (up to 10 μM) in IVF medium, 1×10^6 spermatozoa/ml", "result": "increased significantly and progressively"}, {"measurement": "combined (mono+polyspermic) fertilization rate, spermatozoa preserved with PPi", "setting": "[6]; preserved with 10 μM PPi in BTS 3-4 days, IVF with or without PPi (FIG. 7D third, fourth column)", "result": "highest"}, {"measurement": "fertilization", "setting": "[6]; spermatozoa stored in BTS-IMV with 10 μM PPi for 3 days, below 70% without PPi", "result": "~100", "unit": "%"}, {"measurement": "fertilization rates, spermatozoa stored without PPi, PPi added during IVF", "setting": "[6]; stored 3-4 days in BTS without PPi, IVF with 10 μM PPi (FIG. 7D second column)", "result": "higher"}, {"measurement": "content of metabolically active spermatozoa with polarized mitochondrial membranes", "setting": "boar spermatozoa [7]; day 3, JC-1", "result": "augmented"}, {"measurement": "percentage of live spermatozoa vs control spermatozoa", "setting": "boar spermatozoa [7]; storage days 3 and 10, SYBR14/PI", "result": "no significant difference"}, {"measurement": "sperm motility", "setting": "boar spermatozoa [8]", "result": "Higher"}]}
{"molecule": "prostaglandin F2α [PGF2α]", "values": [{"measurement": "sperm viability and motility", "setting": "sperm diluted in BTS", "result": "maintained better sperm viability and motility"}]}
